Measurements reported in paper PMC5626944 (Frontiers in Pharmacology, 2017).
Where two headings read alike, the source gives them in different places.

Columns and labels:
[1] = tested on: T1, Phosphodiesterase, PDE5A1 (h); assay: NovaScreen enzyme assay; type: biochemical, human; conditions: 1 µM
T1 construct: PerkinElmer – Caliper Life Sciences (NovaScreen service)

[2] = tested on: Muscarinic, M4 (h); assay: NovaScreen competition binding; set-up: species or system human; conditions: 1 µM
[3] = tested on: Serotonin, 5HT7 (h); assay: NovaScreen competition binding; set-up: species or system human; conditions: 1 µM
[4] = tested on: Human FMO3; assay: Turnover by human flavin-containing monooxygenase 3; type: in vitro ADME; conditions: 100 pmol/mL enzyme, 37 °C
Experimental: S2 Table. In vitro metabolism of TC299423, compared w ith varenicline.
Human Rat microsomes Turnover by human cytochrome P450 isoforms […]
The assay mixtures (final incubation volume of 125 μL) in 0.255 M phosphate buffer with 0.575% (w/v) KCl (pH 7.4) contained PiB (1.0 μM), […] a recombinantly expressed cytochrome P450 enzyme preparation (1A2, 2C9, 2C19, 2D6, 3A4, and FMO3) at 100 pmol/mL. After a 10 min preincubation at 37 °C, the reaction was initiated by addition of 2.0 mM NADPH and incubated for 60 min. The reactions were terminated by the addition of two volumes of DMSO. Samples were subsequently centrifuged at 4,000 rpm for 10 min. From the resulting supernatant, 10 μ L was analyzed by liquid chromatography/tandem mass spectrometry (LC-MS/MS). Control experiments were performed by substituting the active enzyme preparation by cell preparations containing no recombinant human CYP. a, Data for clearance are given as μL /min/mg protein. […]
c, Data for cytochrome P450 turnover and for human flavin- containing monooxygenase 3 (FMO3) are given as percent decline over 60 min.

[5] = tested on: T2, Adrenergic, Alpha 2A (h); assay: NovaScreen competition binding; set-up: species or system human; conditions: 1 µM
T2 construct: PerkinElmer – Caliper Life Sciences (NovaScreen service)

[6] = molecular target: α6β2* nAChRs (Mus musculus, UniProt Q9ERK7+Q9R0W9); assay: [125I]epibatidine binding, striatal membranes from α4KO mice; set-up: from tissue; host or cells: striatal membranes from α4KO mice
α6β2* nAChRs, sequence (Q9ERK7 26-501): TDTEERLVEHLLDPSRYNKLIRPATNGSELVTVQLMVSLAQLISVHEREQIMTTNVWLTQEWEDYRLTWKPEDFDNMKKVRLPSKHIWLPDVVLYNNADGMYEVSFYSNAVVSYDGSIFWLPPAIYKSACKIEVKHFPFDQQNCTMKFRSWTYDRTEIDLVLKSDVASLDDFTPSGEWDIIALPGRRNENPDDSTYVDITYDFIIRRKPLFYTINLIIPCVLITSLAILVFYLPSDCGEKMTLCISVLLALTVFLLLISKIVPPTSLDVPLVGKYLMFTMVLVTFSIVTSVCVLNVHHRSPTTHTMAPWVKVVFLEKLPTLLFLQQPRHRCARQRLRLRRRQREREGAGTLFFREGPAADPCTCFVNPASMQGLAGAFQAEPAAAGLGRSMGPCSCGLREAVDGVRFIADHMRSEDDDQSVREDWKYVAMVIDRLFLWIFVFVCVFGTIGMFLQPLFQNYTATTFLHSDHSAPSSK
α6β2* nAChRs, sequence (Q9R0W9 31-494): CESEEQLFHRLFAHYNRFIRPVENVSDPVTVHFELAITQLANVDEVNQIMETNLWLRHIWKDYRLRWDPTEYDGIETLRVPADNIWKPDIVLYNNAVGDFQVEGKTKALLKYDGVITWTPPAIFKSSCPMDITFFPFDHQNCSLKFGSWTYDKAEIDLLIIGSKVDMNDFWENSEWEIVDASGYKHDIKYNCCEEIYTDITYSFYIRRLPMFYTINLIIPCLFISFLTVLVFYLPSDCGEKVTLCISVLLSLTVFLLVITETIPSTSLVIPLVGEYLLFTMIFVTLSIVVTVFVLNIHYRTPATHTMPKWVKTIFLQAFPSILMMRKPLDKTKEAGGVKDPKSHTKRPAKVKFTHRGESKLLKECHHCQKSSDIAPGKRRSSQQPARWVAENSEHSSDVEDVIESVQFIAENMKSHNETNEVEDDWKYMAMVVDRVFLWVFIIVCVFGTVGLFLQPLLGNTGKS
Experimental: Brain membrane preparations were stored as pellets under buffer at -70°C or used immediately.

[7] = tested on: T3, Neuropeptide, NPY2 (h); assay: NovaScreen competition binding; set-up: species or system human; conditions: 1 µM
T3 construct: PerkinElmer – Caliper Life Sciences (NovaScreen service)

[8] = tested on: Muscarinic, M2 (h); assay: NovaScreen competition binding; set-up: species or system human; conditions: 1 µM
[9] = tested on: Dopamine, D1 (h); assay: NovaScreen competition binding; set-up: species or system human; conditions: 1 µM
[10] = tested on: T4, Kinase, Protein, PKA (h); assay: NovaScreen enzyme assay; type: biochemical, human; conditions: 1 µM
T4 construct: PerkinElmer – Caliper Life Sciences (NovaScreen service)

[11] = tested on: T5, Adrenergic, Alpha 1A; assay: NovaScreen competition binding; conditions: 1 µM
T5 construct: PerkinElmer – Caliper Life Sciences (NovaScreen service)

[12] = tested on: Dopamine Transporter; assay: NovaScreen competition binding; conditions: 1 µM
[13] = tested on: Serotonin, 5HT2A; assay: NovaScreen competition binding; conditions: 1 µM
[14] = tested on: Serotonin, 5HT1D; assay: NovaScreen competition binding; conditions: 1 µM
[15] = tested on: T6, Adrenergic, Alpha 2C (h); assay: NovaScreen competition binding; set-up: species or system human; conditions: 1 µM
T6 construct: PerkinElmer – Caliper Life Sciences (NovaScreen service)

[16] = tested on: Serotonin, 5HT6 (h); assay: NovaScreen competition binding; set-up: species or system human; conditions: 1 µM
[17] = molecular target: α4β2* nAChRs (Mus musculus, UniProt O70174+Q9ERK7); assay: biochemical; type: biochemical; conditions: for Emax: relative to nicotine; for EC50: read-out: Neurotransmitter release EC50
α4β2* nAChRs, sequence (O70174 31-629): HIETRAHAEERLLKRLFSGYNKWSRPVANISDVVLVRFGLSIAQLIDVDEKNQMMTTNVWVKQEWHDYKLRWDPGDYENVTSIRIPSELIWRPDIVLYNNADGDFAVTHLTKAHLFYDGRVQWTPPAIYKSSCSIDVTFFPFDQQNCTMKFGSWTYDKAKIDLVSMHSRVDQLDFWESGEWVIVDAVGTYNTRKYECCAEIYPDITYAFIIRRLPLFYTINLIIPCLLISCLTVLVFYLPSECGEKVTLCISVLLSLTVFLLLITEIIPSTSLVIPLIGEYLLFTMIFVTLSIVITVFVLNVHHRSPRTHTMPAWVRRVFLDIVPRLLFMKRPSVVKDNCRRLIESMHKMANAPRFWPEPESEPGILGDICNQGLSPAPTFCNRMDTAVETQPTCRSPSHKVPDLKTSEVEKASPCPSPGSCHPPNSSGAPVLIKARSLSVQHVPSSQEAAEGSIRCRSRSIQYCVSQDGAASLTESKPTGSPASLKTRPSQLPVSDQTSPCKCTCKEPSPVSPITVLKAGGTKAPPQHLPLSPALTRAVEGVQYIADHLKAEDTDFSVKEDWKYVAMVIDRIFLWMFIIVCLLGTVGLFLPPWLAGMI
α4β2* nAChRs, sequence (Q9ERK7 26-501): as the sequence (Q9ERK7 26-501) above
Experimental: Regions of interest were dissected from fresh mouse brains and homogenized in ice-cold isotonic sucrose (0.32 M), buffered with HEPES (5 mM, pH 7.5). The suspension was centrifuged at 12,000 × g for 20 min.
Superfusion proceeded at 0.7 mL/min for 10 min before stimulation with agonist for 20 s. Selected aliquots were perfused with α-CtxMII (50 nM) for 3 min immediately before stimulation. […] Fractions (∼0.1 mL) were collected into 96-well plates at 10 s intervals for 4 min (starting ∼1 min before stimulation).

[18] = tested on: male Wistar rats; assay: Rat intravenous nicotine self-administration; type: in vivo; conditions: 0.01, 0.025, 0.05, 0.08 mg/kg ip, 20 min before session; nicotine 0.03 mg/kg/inf
Source text: Operant chambers (Med Associates, East Fairfield, VT, United States) were used for food delivery and the intravenous self-administration (IVSA) of nicotine.
For IV catheter implantation, the rats were anesthetized using 1–3% isoflurane inhalation in oxygen and surgically prepared with catheters in the left jugular vein ([Kenny et al., 2008]). The catheter was passed subcutaneously to a polyethylene assembly mounted on the animals’ back. Prior to training, rats were food-restricted so that their body weight was approximately ∼85% that of free-feeding rats. They were then trained to press an active lever for 45 mg food pellets on a fixed ratio 5 time-out 20 s (FR5TO20) schedule of reinforcement. […] Pressing this lever was recorded but was not associated with scheduled consequence. Rats were permitted to respond for food rewards until a reliable response was achieved, defined as >90 pellets earned per 1 h session for three consecutive sessions. Rats were then permitted to respond for food (n = 8) or for nicotine infusions (n = 9) during 1 h daily sessions under the FR5TO20 schedule. […]
Twenty min after injection, rats were placed in the operant boxes and responding for food rewards or nicotine infusions was recorded. […]

[19] = tested on: T7, Kinase, Protein, PKCa (h); assay: NovaScreen enzyme assay; type: biochemical, human; conditions: 1 µM
T7 construct: PerkinElmer – Caliper Life Sciences (NovaScreen service)

[20] = tested on: Potassium Channel, Ca2+ Act., VI; assay: NovaScreen competition binding; conditions: 1 µM
[21] = substrate Fluorescein-labeled peptide

C1=C(/c2cncnc2)CCCNCC/1 [TC299423, (E)-5-(pyrimidin-5-yl)-1,2,3,4,7,8-hexahydroazocine]
Hit [1]: FALSE
Inhibition ([1]; substrate Fluorescent cyclic GMP): -3.00%
Hit [2]: FALSE
Inhibition ([2]; [3H]Scopolamine, N-Methyl): -6.69%
Hit [3]: FALSE
Inhibition ([3]; [3H]LSD): -2.10%
Turnover by Human FMO3 [4]: 17 percent decline over 60 min
Hit [5]: FALSE
Inhibition ([5]; [3H]MK-912): 6.75%
Ki ([6]; α4KO striatal membranes): 1.4 ± 0.6 nM
Difference between Ki ([125I]epibatidine) and EC50 ([3H]dopamine release) ([6]; α6β2* nAChRs): ~20 fold
Hit [7]: FALSE
Inhibition ([7]; [125I]-PYY): 2.16%
Hit [8]: FALSE
Inhibition ([8]; [3H]Scopolamine, N-Methyl): -3.18%
Hit [9]: FALSE
Inhibition ([9]; [3H]-SCH23390): -2.94%
Hit [10]: FALSE
Inhibition [10, 21]: -5.00%
Hit [11]: FALSE
Inhibition ([11]; [3H]-7-MeOxy-Prazosin): -0.05%
Hit [12]: FALSE
Inhibition ([12]; [3H]WIN 35,428): -5.87%
Hit [13]: FALSE
Inhibition ([13]; [3H]Ketanserin): 12.43%
Hit [14]: FALSE
Inhibition ([14]; [3H]5-CT): 9.99%
Hit [15]: FALSE
Inhibition ([15]; [3H]MK-912): 6.28%
Hit [16]: FALSE
Inhibition ([16]; [3H]-LSD): 8.87%
Emax ([17]; read-out: Neurotransmitter release % Efficacy, WT striatal synaptosomes, single component): 76 ± 5%
Emax ([17]; read-out: Neurotransmitter release % Efficacy, α5KO striatal synaptosomes): 112 ± 9%
EC50 ([17]; WT striatal synaptosomes, single component): 130 nM
EC50 ([17]; α5KO striatal synaptosomes): 600 nM
Responding for nicotine infusions vs vehicle [18]: no statistically significant changes
Hit [19]: FALSE
Inhibition [19, 21]: -1.00%
Hit [20]: FALSE
Inhibition ([20]; [125I]Apamin): -2.57%
